± gives the expanded uncertainty stated by the source.
Experiment: xn = mol fraction of the nth substance listed
Details: Liquid

CCCCO [butan-1-ol] + O=C=O
Details | mass density [kg/m3]
313.16 K, 11059 kPa, x2 = 0.5965 | 838.66 ± 0.51
313.16 K, 11082 kPa, x2 = 0.8663 | 813.86 ± 0.57
313.16 K, 12061 kPa, x2 = 0.8663 | 821.6 ± 0.57
313.16 K, 12075 kPa, x2 = 0.5965 | 840.6 ± 0.51
313.16 K, 13043 kPa, x2 = 0.8663 | 828.71 ± 0.57
313.16 K, 13069 kPa, x2 = 0.5965 | 842.49 ± 0.52
313.16 K, 14076 kPa, x2 = 0.8663 | 835.52 ± 0.56
313.16 K, 14098 kPa, x2 = 0.5965 | 844.39 ± 0.52
313.16 K, 15059 kPa, x2 = 0.5965 | 846.11 ± 0.53
313.16 K, 15061 kPa, x2 = 0.8663 | 841.57 ± 0.56
313.16 K, 16037 kPa, x2 = 0.5965 | 847.81 ± 0.53
313.16 K, 16043 kPa, x2 = 0.8663 | 847.15 ± 0.56
313.16 K, 17032 kPa, x2 = 0.5965 | 849.52 ± 0.53
313.16 K, 17052 kPa, x2 = 0.8663 | 852.59 ± 0.56
313.16 K, 18048 kPa, x2 = 0.5965 | 851.21 ± 0.54
313.16 K, 18056 kPa, x2 = 0.8663 | 857.69 ± 0.55
313.16 K, 19039 kPa, x2 = 0.8663 | 862.42 ± 0.55
313.16 K, 19055 kPa, x2 = 0.5965 | 852.88 ± 0.54
313.16 K, 20027 kPa, x2 = 0.8663 | 866.99 ± 0.55
313.16 K, 20044 kPa, x2 = 0.5965 | 854.46 ± 0.55
313.16 K, 21042 kPa, x2 = 0.5965 | 856.04 ± 0.55
313.16 K, 21068 kPa, x2 = 0.8663 | 871.52 ± 0.55
313.16 K, 22034 kPa, x2 = 0.8663 | 875.6 ± 0.55
313.16 K, 22053 kPa, x2 = 0.5965 | 857.62 ± 0.56
313.16 K, 23031 kPa, x2 = 0.5965 | 859.12 ± 0.56
313.16 K, 23061 kPa, x2 = 0.8663 | 879.74 ± 0.55
313.16 K, 24038 kPa, x2 = 0.5965 | 860.62 ± 0.57
313.16 K, 24054 kPa, x2 = 0.8663 | 883.63 ± 0.55
313.16 K, 25015 kPa, x2 = 0.8663 | 887.21 ± 0.56
313.16 K, 25036 kPa, x2 = 0.5965 | 862.12 ± 0.57
323.05 K, 1017 kPa, x2 = 0.0251 | 789.88 ± 0.46
323.05 K, 2015 kPa, x2 = 0.0251 | 790.73 ± 0.47
323.05 K, 3003 kPa, x2 = 0.0251 | 791.59 ± 0.48
323.05 K, 4007 kPa, x2 = 0.0251 | 792.48 ± 0.48
323.05 K, 5026 kPa, x2 = 0.0251 | 793.33 ± 0.49
323.05 K, 5975 kPa, x2 = 0.0251 | 794.14 ± 0.5
323.05 K, 7085 kPa, x2 = 0.0251 | 795.08 ± 0.51
323.05 K, 7991 kPa, x2 = 0.0251 | 795.85 ± 0.52
323.05 K, 9003 kPa, x2 = 0.0251 | 796.68 ± 0.52
323.05 K, 10032 kPa, x2 = 0.0251 | 797.56 ± 0.53
323.05 K, 10996 kPa, x2 = 0.0251 | 798.32 ± 0.54
323.05 K, 11029 kPa, x2 = 0.9698 | 630.03 ± 1.2
323.05 K, 12005 kPa, x2 = 0.9698 | 671.01 ± 1.1
323.05 K, 12028 kPa, x2 = 0.0251 | 799.15 ± 0.55
323.05 K, 12996 kPa, x2 = 0.9698 | 700.08 ± 0.96
323.05 K, 13030 kPa, x2 = 0.0251 | 799.93 ± 0.56
323.05 K, 14024 kPa, x2 = 0.9698 | 723.36 ± 0.87
323.05 K, 14030 kPa, x2 = 0.0251 | 800.72 ± 0.57
323.05 K, 15018 kPa, x2 = 0.0251 | 801.45 ± 0.58
323.05 K, 15024 kPa, x2 = 0.9698 | 741.89 ± 0.82
323.05 K, 16009 kPa, x2 = 0.9698 | 757.4 ± 0.78
323.05 K, 16017 kPa, x2 = 0.0251 | 802.24 ± 0.59
323.05 K, 17001 kPa, x2 = 0.9698 | 771.14 ± 0.76
323.05 K, 17014 kPa, x2 = 0.0251 | 802.97 ± 0.59
323.05 K, 18016 kPa, x2 = 0.9698 | 783.62 ± 0.74
323.05 K, 18025 kPa, x2 = 0.0251 | 803.71 ± 0.6
323.05 K, 19020 kPa, x2 = 0.9698 | 794.82 ± 0.72
323.05 K, 19034 kPa, x2 = 0.0251 | 804.49 ± 0.61
323.05 K, 20048 kPa, x2 = 0.9698 | 805.21 ± 0.7
323.05 K, 20052 kPa, x2 = 0.0251 | 805.21 ± 0.62
323.05 K, 21014 kPa, x2 = 0.0251 | 805.95 ± 0.63
323.05 K, 21055 kPa, x2 = 0.9698 | 814.54 ± 0.69
323.05 K, 22017 kPa, x2 = 0.9698 | 822.92 ± 0.68
323.05 K, 22027 kPa, x2 = 0.0251 | 806.68 ± 0.64
323.05 K, 23002 kPa, x2 = 0.0251 | 807.38 ± 0.65
323.05 K, 23087 kPa, x2 = 0.9698 | 831.58 ± 0.67
323.05 K, 24035 kPa, x2 = 0.0251 | 808.13 ± 0.66
323.05 K, 24055 kPa, x2 = 0.9698 | 838.92 ± 0.66
323.05 K, 25023 kPa, x2 = 0.0251 | 808.84 ± 0.67
323.07 K, 1981 kPa, x2 = 0.0857 | 794.04 ± 0.47
323.07 K, 3013 kPa, x2 = 0.0857 | 795.05 ± 0.47
323.07 K, 4009 kPa, x2 = 0.0857 | 795.99 ± 0.48
323.07 K, 5021 kPa, x2 = 0.0857 | 796.91 ± 0.49
323.07 K, 6010 kPa, x2 = 0.0857 | 797.83 ± 0.5
323.07 K, 6995 kPa, x2 = 0.0857 | 798.74 ± 0.5
323.07 K, 7985 kPa, x2 = 0.0857 | 799.59 ± 0.51
323.07 K, 9047 kPa, x2 = 0.0857 | 800.55 ± 0.52
323.07 K, 10028 kPa, x2 = 0.0857 | 801.4 ± 0.53
323.07 K, 11003 kPa, x2 = 0.0857 | 802.22 ± 0.54
323.07 K, 12005 kPa, x2 = 0.0857 | 803.07 ± 0.55
323.07 K, 12995 kPa, x2 = 0.0857 | 803.91 ± 0.55
323.07 K, 14273 kPa, x2 = 0.0857 | 805.01 ± 0.56
323.07 K, 15019 kPa, x2 = 0.0857 | 805.58 ± 0.57
323.07 K, 15998 kPa, x2 = 0.0857 | 806.41 ± 0.58
